Measurements taken from BindingDB's records for doi:10.1021/jm00123a006 (University of Pennsylvania, 1989).

Target: 5-HT1A receptor (Bos taurus)
Test: In vitro inhibition of [3H]5-HT (2 nM) binding to 5-hydroxytryptamine 1A receptor from bovine hippocampus

## [N-]=[N+]=Nc1ccc(CCN2CCN(c3cccc(C(F)(F)F)c3)CC2)cc1I
  IC50: 35 nM
